Data as given in the Kinase Knowledgebase extract (Sharma et al. 2016).

Assays:
EGFR = EGFR (UniProt P00533)
EGFR (murine) = EGFR (murine) (UniProt P00533); conditions: nih3t3/c7
EGFR (murine), sequence (P00533 whole entry, looked up): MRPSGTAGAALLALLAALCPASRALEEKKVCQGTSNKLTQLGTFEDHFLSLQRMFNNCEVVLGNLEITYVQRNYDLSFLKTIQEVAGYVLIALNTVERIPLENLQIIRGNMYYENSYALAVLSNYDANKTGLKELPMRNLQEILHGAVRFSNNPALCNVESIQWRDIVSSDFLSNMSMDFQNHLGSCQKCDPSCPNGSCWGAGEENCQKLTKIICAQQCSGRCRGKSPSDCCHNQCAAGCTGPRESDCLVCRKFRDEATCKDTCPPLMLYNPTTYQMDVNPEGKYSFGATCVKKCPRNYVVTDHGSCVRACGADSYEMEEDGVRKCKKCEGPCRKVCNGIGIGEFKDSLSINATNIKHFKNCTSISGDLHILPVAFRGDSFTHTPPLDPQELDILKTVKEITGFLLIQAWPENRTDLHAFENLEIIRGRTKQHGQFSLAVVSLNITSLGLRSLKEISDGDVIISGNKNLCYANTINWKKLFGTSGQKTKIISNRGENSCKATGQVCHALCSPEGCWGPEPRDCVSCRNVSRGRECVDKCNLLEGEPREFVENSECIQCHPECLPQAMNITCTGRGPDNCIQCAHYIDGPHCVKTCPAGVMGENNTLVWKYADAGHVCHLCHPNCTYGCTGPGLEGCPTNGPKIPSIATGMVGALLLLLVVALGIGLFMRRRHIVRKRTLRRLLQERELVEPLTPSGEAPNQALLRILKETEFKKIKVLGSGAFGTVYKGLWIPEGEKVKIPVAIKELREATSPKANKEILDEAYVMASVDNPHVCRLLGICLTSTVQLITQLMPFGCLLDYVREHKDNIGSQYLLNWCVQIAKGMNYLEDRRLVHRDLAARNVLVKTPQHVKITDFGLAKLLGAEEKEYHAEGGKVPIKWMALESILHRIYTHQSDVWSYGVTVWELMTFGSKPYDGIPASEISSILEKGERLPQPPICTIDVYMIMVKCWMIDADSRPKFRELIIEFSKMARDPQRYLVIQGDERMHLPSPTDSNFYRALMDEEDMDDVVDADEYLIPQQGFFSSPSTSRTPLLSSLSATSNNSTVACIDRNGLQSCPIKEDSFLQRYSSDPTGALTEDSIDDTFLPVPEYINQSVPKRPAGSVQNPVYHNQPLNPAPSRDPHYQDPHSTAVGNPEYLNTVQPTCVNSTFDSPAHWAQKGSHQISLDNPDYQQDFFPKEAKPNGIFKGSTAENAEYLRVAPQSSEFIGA

EGFR, sequence (P00533 whole entry, looked up): as above

| IC50 (EGFR) [µM] | IC50 (EGFR (murine)) [µM] | SMILES |
| --- | --- | --- |
| > 100 | – | Cc1cccc2c1CC/C2=C1/C(=O)Nc2ccccc21 |
| > 100 | – | COc1ccc2c(c1)CC/C2=C1/C(=O)Nc2ccccc21 |
| > 100 | – | COc1ccc2c(c1)/C(=C1\C(=O)Nc3ccccc31)CC2 |
| > 25 | – | COc1cc2c(cc1OC)/C(=C1\C(=O)Nc3ccccc31)CC2 |
| > 100 | – | CC1C/C(=C2/C(=O)Nc3ccccc32)c2ccccc21 (centres undefined) |
| > 100 | – | O=C1Nc2ccccc2/C1=C1\CCc2cc(Cl)ccc21 |
| > 100 | – | O=C1Nc2ccccc2/C1=C1\CCc2cc(Br)ccc21 |
| > 100 | – | O=C1Nc2ccccc2/C1=C1\CCc2cc(N3CCCCC3)ccc21 |
| > 100 | > 100 | O=C1Nc2ccccc2/C1=C1\CCc2ccccc21 |
| > 100 | – | CN(C)c1ccc2c(c1)CC/C2=C1/C(=O)Nc2ccccc21 |
| > 100 | – | Nc1ccc2c(c1)CC/C2=C1/C(=O)Nc2ccccc21 |
| > 100 | > 100 | COc1ccc2c(c1)C(CC(=O)O)C/C2=C1/C(=O)Nc2ccccc21 (centres undefined) |
